The target of data set [1] is rodent PDE4. Kind of data set: Inhibition of rodent PDE4 (rolipram binding sites). The settings on record: Table 4. As to the method: IC50 values for inhibitor interaction with this site were calculated by nonlinear regression analysis of competition curves for unlabeled PDE4 inhibitors; Ki values were determined according to the method of Cheng and Prusoff (1973). […] Competition curves for the PDE4 inhibitors were subjected to nonlinear regression analysis and IC50 values with which the inhibitors bind to each of the binding sites was determined; K1 values were determined according to the method of Cheng and Prusoff (1973).

The target in data set [2] is T1, human PDE4D3 (Homo sapiens, UniProt Q08499).
T1 construct: made in house; host or cells: Cos 7 cells (construct and cells a gift from Dr. Conti, Stanford)
T1 sequence (Q08499 1-673 isoform Q08499-2): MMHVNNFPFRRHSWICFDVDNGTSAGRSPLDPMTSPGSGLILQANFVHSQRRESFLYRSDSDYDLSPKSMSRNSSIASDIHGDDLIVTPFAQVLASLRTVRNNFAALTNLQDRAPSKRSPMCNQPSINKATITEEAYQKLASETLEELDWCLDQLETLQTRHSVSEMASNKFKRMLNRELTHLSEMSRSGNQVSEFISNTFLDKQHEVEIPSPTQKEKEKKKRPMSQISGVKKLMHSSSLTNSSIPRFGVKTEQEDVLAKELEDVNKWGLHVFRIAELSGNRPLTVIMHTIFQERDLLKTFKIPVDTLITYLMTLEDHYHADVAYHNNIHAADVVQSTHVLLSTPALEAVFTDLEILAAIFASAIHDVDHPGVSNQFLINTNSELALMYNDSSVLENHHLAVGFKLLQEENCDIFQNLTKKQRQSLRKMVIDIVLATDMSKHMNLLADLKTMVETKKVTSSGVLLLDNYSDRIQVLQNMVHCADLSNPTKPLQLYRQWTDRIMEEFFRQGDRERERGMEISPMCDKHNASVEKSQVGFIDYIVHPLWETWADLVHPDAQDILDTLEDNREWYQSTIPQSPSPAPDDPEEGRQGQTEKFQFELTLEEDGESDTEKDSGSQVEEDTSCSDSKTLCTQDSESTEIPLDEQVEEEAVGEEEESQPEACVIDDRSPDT
Nature of the data set: Inhibition of cAMP hydrolysis by recombinant human PDE4D3. The data set is classed as biochemical. How it is done: The PDE construct was transfected into Cos 7 cells in round culture dish (100×20 mm). The cells were then harvested and homogenized with lysis buffer. The crude homogenate was spun at maximum speed in a microfuge. The supernatant fluid was saved as an extract. […] The PDE construct and Cos 7 cells were a kind gift from Dr. Conti at the Stanford University School of Medicine.
(§1) PDE4 enzyme assays were carried out as described previously. Studies with recombinant PDE4 enzymes were carried out in the laboratory of Professor Marco Conti (Stanford University, Palo Alto, Calif.).

In data set [3] the target is T2, human PDE4B3 (Homo sapiens, UniProt Q07343).
T2 construct: made in house
T2 sequence (Q07343 1-721 isoform Q07343-3): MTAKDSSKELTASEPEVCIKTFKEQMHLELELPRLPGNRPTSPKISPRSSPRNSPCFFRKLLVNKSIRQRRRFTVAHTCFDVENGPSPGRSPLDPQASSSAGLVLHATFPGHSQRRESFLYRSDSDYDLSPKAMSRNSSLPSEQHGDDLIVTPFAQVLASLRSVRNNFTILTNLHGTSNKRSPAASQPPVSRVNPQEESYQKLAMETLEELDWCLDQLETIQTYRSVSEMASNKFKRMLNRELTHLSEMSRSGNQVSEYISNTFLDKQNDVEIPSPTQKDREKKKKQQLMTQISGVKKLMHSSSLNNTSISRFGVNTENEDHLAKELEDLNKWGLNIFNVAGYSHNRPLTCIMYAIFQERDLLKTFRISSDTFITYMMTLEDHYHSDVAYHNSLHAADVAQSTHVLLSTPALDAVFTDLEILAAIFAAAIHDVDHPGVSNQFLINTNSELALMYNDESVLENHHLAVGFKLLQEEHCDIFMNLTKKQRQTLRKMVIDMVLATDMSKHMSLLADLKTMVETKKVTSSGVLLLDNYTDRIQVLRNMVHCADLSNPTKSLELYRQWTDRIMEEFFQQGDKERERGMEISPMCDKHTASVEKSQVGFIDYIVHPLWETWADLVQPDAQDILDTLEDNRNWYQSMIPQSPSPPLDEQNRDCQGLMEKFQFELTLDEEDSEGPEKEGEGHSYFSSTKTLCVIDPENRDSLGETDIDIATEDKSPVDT
Kind of data set: Inhibition of cAMP hydrolysis by recombinant human PDE4B3. Type of data set: biochemical. As to conditions: Example 29. As to the method: as §1

Data set [4] deals with T3, human PDE4A1 (Homo sapiens, UniProt P27815).
T3 construct: made in house
T3 sequence (P27815 1-647 isoform P27815-4): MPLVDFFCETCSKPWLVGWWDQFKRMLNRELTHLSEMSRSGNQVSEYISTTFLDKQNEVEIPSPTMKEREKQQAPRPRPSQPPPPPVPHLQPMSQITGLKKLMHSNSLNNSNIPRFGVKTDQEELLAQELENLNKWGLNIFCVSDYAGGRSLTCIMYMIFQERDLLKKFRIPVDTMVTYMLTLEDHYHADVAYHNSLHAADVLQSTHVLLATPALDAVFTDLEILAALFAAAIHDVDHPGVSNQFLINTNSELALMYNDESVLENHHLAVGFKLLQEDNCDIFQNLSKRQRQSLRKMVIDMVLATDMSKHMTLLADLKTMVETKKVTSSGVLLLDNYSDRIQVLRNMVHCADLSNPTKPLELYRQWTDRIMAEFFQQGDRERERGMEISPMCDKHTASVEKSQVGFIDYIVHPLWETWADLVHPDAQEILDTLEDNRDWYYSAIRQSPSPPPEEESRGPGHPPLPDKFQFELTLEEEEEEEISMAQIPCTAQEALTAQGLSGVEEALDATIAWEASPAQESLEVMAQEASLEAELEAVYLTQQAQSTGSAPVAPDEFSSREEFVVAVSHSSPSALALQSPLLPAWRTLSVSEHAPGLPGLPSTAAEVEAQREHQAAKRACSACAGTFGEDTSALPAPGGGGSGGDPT
Nature of the data set: Inhibition of cAMP hydrolysis by recombinant human PDE4A1. Type of data set: biochemical. As to the method: as §1

Data set [5] concerns Balb/c mice. Nature of the data set: Forced-swim test in Balb/c mice. Type of data set: in vivo, mouse. The settings on record: i.p. 23, 5 and 1 hr prior; fluoxetine 10 mg/kg, 18k/l or 14 10 mg/kg, 21 1 mg/kg. As to the method: The study was conducted according to a standard operation procedure and in accordance with all Federal regulations. Water and food were freely available in the home cages. […] Mice were given a swimming pretest session, once a day for two successive days. […] During the pretest and test sessions, each mouse was placed for […] in a plastic cylinder (45 cm high×20 cm diameter), which was filled to a depth of 28 cm with water (23±1° C.). The duration of immobility, which was defined as floating in an upright position without additional activity other than that necessary for the animal to keep its head above water, was recorded. For the subchronic administration tests, the animals were separated as above and vehicle or chemicals were given by i.p. administration 23, 5 and 1 hr before the FST. The subchronic experiments were done similar to the study described above except for the pretest training that was not carried out.
Mice in the first session were treated with vehicle or the drugs acutely, whereas mice in the second sessions were treated subchronically, i.e., vehicle or drugs were given i.p. 23, 5, and 1 hr before the FST. The experiment was performed similar to Experiment 1 except for the pretest training, which was not carried out in the second session.

The test system of data set [6] is ICR mice. Nature of the data set: Forced-swim test in ICR mice. The data set is classed as in vivo, mouse. How it is done: Forty male ICR mice, weighed 26.2±0.3 g, were housed in a temperature-controlled room (22-23° C.) and maintained on a 12-hour on 12-hour off light cycle (lights on at 6:00 AM). Water and food were freely available in the home cages. […] Saline containing the same percentage of DMSO was used as vehicle. The lower doses were tested followed by the larger doses 1 week later, when the mice were again randomly divided into four groups as described above. The forced-swim test (FST) was carried out as described previously. Mice were given a swimming pretest session, once a day for two successive days. Twenty-four hours after the last session, mice were injected vehicle or the lower dose of each test compound by the i.p. route 30 min prior to the FST. One week later, administration of the larger dose of each of the test compounds was repeated. During the pretest and test sessions, each mouse was placed for 6 min in a plastic cylinder (45 cm high×20 cm diameter), which was filled to a depth of 28 cm with water (23±1° C.). The duration of immobility, which was defined as floating in an upright position without additional activity other than that necessary for the animal to keep its head above water, was recorded.

The nature of data set [7]: Mouse liver microsome stability assay. The data set is classed as in vitro ADME. As to conditions: for half life, mouse liver microsomes: NADPH; for MLM t1/2: Table 16. As to the method:
(§2) A typical assay mixture contained either mouse or rat liver microsomes (0.5 mg of protein), […] potassium phosphate buffer (pH 7.4), 40 μM test compounds, 0.5 mM NADP+, 0.5 mM glucose-6-phosphate, 5 IU/mL glucose-6-phosphate dehydrogenase, 1 mg/mL diethylenetriaminepentaacetic acid (DETAPAC) and 5 mM MgCl2 in a final incubation volume of 0.1 mL. After 0, 10, 25, 40 and […], the incubations were stopped by the addition of 1 ml CH2Cl2/2-propanol (3:1 v:v). The mixture was centrifuged at 12,000×g for 1 min, and the organic layer was separated from the aqueous fraction. The organic fraction was evaporated with a stream of argon and the residue was taken up in methanol (200 μL) and injected into the HPLC system described above.
(§3) Microsomal incubations (final volume 0.25 mL) with the SSRIs, dual PDE4 inhibitor/SSRIs or PDE4 inhibitor was done with an HPLC assay as described above. Diluted stocks of either mouse, human or rat liver microsomes (0.5 mg of protein), […] potassium phosphate buffer (pH 7.4), 0.5 mM NADI)^+, 0.5 mM glucose-6-phosphate, 5 IU/mL glucose-6-phosphate dehydrogenase, 0.6 mM DETAPAC, and 3 mM MgC12 were combined and placed on ice. For a metabolic stability assay, either vehicle or 40 μM test compound was added and the incubation was initiated at 37° C. with constant shaking. After 0, 10, 25, 40 and 60 min, the incubations were stopped by the addition of 1 mL CH2Cl2/2-propanol (3:1, v:v). After thorough mixing, the organic layer was separated from the aqueous portion by centrifugation at 12,000×g. The organic material was evaporated with a stream of argon. The residue was dissolved in methanol (200 μL) and the sample was analyzed by HPLC.
For orientation: Microsomes from liver hold many membrane-bound enzymes, among them those of drug oxidation.

Data set [8] in a line: Human liver microsome stability assay. The data set is classed as in vitro ADME. How it is done: as §3
Data set [9] addresses T4, GRK2 (Homo sapiens, UniProt P25098).
T4 construct: host or cells: gift of a collaborator (Professor Benovic, Thomas Jefferson University)
T4 sequence (P25098 1-689): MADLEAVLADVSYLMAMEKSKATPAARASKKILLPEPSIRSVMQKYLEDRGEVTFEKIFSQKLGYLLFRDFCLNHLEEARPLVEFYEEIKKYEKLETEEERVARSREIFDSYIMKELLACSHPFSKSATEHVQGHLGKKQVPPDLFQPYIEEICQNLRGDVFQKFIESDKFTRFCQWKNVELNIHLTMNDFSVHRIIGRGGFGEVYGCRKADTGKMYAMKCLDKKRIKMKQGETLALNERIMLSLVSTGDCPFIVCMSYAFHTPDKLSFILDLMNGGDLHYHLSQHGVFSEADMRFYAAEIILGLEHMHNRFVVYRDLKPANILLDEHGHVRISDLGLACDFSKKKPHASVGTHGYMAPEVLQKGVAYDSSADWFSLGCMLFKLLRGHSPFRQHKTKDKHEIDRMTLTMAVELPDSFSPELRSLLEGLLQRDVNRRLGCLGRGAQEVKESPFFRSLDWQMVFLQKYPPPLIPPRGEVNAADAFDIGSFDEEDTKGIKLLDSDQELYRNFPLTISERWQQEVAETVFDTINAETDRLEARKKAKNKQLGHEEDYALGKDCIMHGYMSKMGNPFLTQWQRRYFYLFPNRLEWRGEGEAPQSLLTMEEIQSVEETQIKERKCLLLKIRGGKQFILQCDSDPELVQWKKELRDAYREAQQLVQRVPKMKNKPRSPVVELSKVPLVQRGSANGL
Kind of data set: High throughput KinaseGlo kinase assay. Type of data set: biochemical. For orientation: Kinase-Glo reads ATP consumption through a luciferase reaction.
Excerpt: A homogenous KinaseGlo assay was developed and conducted in a 96-well format. Briefly, the assay design allowed large numbers of tests to be done in a high throughput fashion using a 96-well plate reader system. The KinaseGlo assay involved transfer of γ-phosphate from [γ^33P]ATP by GRK2 to tubulin.

Data set [10] can be described thus: Rat liver microsome stability assay. The data set is classed as in vitro ADME. As to the method: as §2
as §3, with “After 0, 10, 25, 40 and 60 min, the incubations were stopped by the addition of 1 mL CH2Cl2/2-propanol (3:1, v:v). After thorough mixing, the organic layer was separated from the aqueous portion by centrifugation at 12,000×g. The organic material was evaporated with a stream of argon.” left out

Data set [11] relates to mice. Nature of the data set: Morris water maze test. The settings on record: 3 mg/kg, compared to control mice. Type of data set: in vivo, mouse. How it is done:
Compounds 19 and 115 were tested in a Morris water maze test. The escape latency (time to climb onto a hidden platform) for each mouse was recorded as a memory test. […] Compared to a group of control mice, compound 19 and 115 caused a 30% improvement in memory at 3 mg/kg. […] This is not completely unexpected as SSRIs often require repeated dosing to see a large and significant effect. […] Multiple dosing likely will increase the efficacy of the compounds tested.

Like-named read-outs stand apart in the source and are kept apart here.

For orientation: pIC50 means −log10 of the IC50, conventionally taken in molar units. Read a high pIC50 as a small IC50. By Ki is commonly meant a measure of affinity in units of concentration, obtained from inhibition or displacement.

For the molecule `COc1ccc(F)cc1CCC1CCC(CCNCCCCCN2N=C(c3ccc(OC)c(OC)c3)C3CC=CCC3C2=O)O1` (racemic) [Compound 21, 4-(3,4-Dimethoxy-phenyl)-2-[5-(2-{5-[2-(5-fluoro-2-methoxy-phenyl)-ethyl]-thtrahydro-furan-2-yl}-ethylamino)-pentyl]-4,5,8,8a-tetrahydro-2H-phthalazin-1-one], the pIC50 in data set [1] stood at 6.6. Moreover, in [2], the “PDE4A1/PDE4D3 inhibitory selectivity ratio” value is less than 500 fold. In addition, the “PDE4B3/PDE4D3 inhibitory selectivity ratio” value in data set [2] is reported as 100 fold. Also, the Ki in data set [2] (Example 29, read-out: Ki, human PDE4D3) was 2 nM; in [3], 199 nM; in data set [4] (Example 29, read-out: Ki, human PDE4A1), greater than 1000 nM; in data set [4] (Table 14, read-out: Human PDE4A1 Ki), less than 1000 nM. The “immobility, forced-swim test, subchronic” value in data set [5] is on record as “did not change immobility”. For the same molecule, the “immobility, forced-swim test, acute, higher dose” value in data set [6] (3 mg/kg i.p., vs vehicle, P<0.05) is listed as “significantly reduced immobility”. In addition, in data set [6] (0.3 and 3 mg/kg i.p.), the “duration of immobility, forced-swim test, acute” value is listed as “decreased duration of immobility in a dose-dependent manner”. Moreover, the “efficacy relative to fluoxetine on a molar basis” value in data set [6] (21 0.5 μmol/kg vs fluoxetine 65 μmol/kg) is 129 fold. Further, the “half life, mouse liver microsomes” value in [7] was determined as 154 min. In addition, in data set [7], the “MLM t1/2” value turned out to be 153.9 min. For the same molecule, in data set [8] (NADPH, up to 60 min), the “metabolism in human liver microsomes” value was “not detectably metabolized”. Besides, the half-life at 40 μM in data set [8] (human, liver microsomes, pH 7.4, Table 16, read-out: HLM t1/2) is greater than 60 min.

Consider `NC1CC1c1cccnc1` (stereo not shown) [2-(pyridine-3-yl)cyclopropanamine], for which the “GRK2 stimulation or inhibition” value in data set [9] was “potent stimulators of GRK2”.

As for `CNCCC1CCC(CCc2cc(F)ccc2OC)O1` (stereo not shown) [Compound 24, (2-{5-[2-(5-Fluoro-2-methoxy-phenyl)-ethyl]-tetrahydro-furan-2-yl}-ethyl)-methyl-amine], in [7], the “half life, mouse liver microsomes” value is reported as 58 min and the “MLM t1/2” value came to 58.5 min. In data set [10] (NADPH), the “half life, rat liver microsomes” value stood at 129 min. Also, the “RLM t1/2” value in data set [10] (Table 16) came to 129.0 min.

In the case of `COc1ccc(F)cc1CCC1CCC(CCN)O1` (stereo not shown) [Compound 28], in [9], the “GRK2 stimulation or inhibition” value is recorded as “potent stimulators of GRK2”. In data set [11], the “improvement in memory (escape latency)” value was roughly 10%.

Source of the values: patent US20130123253A1, “MODULATORS OF CENTRAL NERVOUS SYSTEM NEUROTRANSMITTERS” (HUMAN BIOMOLECULAR RESEARCH INSTITUTE, priority 2004, published 2013).
